Measurements as given in patent US12508320B2, “Drug conjugate, pharmaceutical composition and method of treating hepatitis” (SeeCure Taiwan Co., Ltd., priority 2023, dated 2025).

Legend:
[1] = test system: HepG2 2.2.15 cells (a cell line that expresses the hepatitis B virus); assay: In vitro cell line evaluation: HBsAg/HBeAg levels in culture media of HepG2 2.2.15 cells (AXSYM system kit); format: cell-based; parameters: HBsAg level: unit of the concentration uncertain; conditions: 6-9 days of incubation
Method: In the following experimental examples, when HepG2 2.2.15 cells (a cell line that expresses the hepatitis B virus) are used, the cells are maintained in Dulbecco's modified Eagle's medium (DMEM) (Gibco BRL, Grand Island, NY, USA) plus 10% fetal bovine serum (Hyclone, Logan, UT, USA), 100U/mL penicillin, […] streptomycin. HepG2.2.15 cells were seeded at the same density and used as a medium control. The experimental group is composed by administering the substance in the concentration specified by the manufacturer. All cultures were grown in humidified incubators at 37° C. and 5% CO2.
HepG2 2.2.15 cells were plated into 12-well microtiter plates. On day zero, the cells were washed several times with PBS and treated with tetracycline-free medium that contained either a test drug or a vehicle control group. Each test compound was screened at one concentration in triplicate. On day 3, day 6 and/or day 9, the medium was removed and replaced with fresh medium containing the compound. Twenty-four hours later, the medium was collected and clarified by centrifugation (Sorvall RT-6000D centrifuge, 1,000 rpm, 5 min). Media of HepG2 2.2.15 cells cultures were harvested at 3—, 6-, and 9-days post-HBV infection, and levels of hepatitis B surface antigen (HBsAg) and hepatitis B e antigen (HBeAg) in culture media were measured using an AXSYM system kit (Abbott Diagnostika).
In experimental example 1, five hepatitis treatment groups were prepared and added to HepG2 2.2.15 cells for evaluation. Group 1 is a control group containing only medium (PBS), whereby no drug compound is added. Group 2 is where a conventional drug Entecavir […] is used alone. Group 3 (CPD-0148) is directed to a compound of formula (IA2) […]. Group 4 (CPD-0150) is directed to a compound of formula (IA3) […]. Group 5 (CPD-0147) is directed to a compound of formula (IA4) […]. After 6-9 days of incubation with the above treatment groups, the levels of hepatitis B surface antigen (HBsAg) were measured using an AXSYM system kit (Abbott Diagnostika), and the results are shown in FIG. 10.
In experimental example 2, eight hepatitis treatment groups were prepared and added to HepG2 2.2.15 cells for evaluation. Group 1 is a control group containing only medium (PBS), whereby no drug compound is added. Group 2 is where a conventional drug Birinapant […] is used alone. Group 3 (CPD-0004) is directed to a compound of formula (IB1) […]. Group 4 (CPD-0030) is directed to a compound of formula (IB7) […]. Group 5 (CPD-0036) is directed to a compound of formula (IB2) […]. Group 6 (CPD-0133) is directed to a compound of formula (IB3) […]. Group 7 (CPD-0142) is directed to a compound of formula (IB4) […]. Group 8 (CPD-0186) is directed to a compound of formula (IB5) […]. After 6-9 days of incubation with the above treatment groups, the levels of hepatitis B surface antigen (HBsAg) were measured using an AXSYM system kit (Abbott Diagnostika), and the results are shown in FIG. 11.
In experimental example 3, thirteen hepatitis treatment groups were prepared and added to HepG2 2.2.15 cells for evaluation. Group 1 is a control group containing only medium (PBS), whereby no drug compound is added. Group 2 (Teno-Int) is where an intermediate of the conventional drug Tenofovir (100 mM; structure shown in first step of FIG. 3) is used alone. Group 3 (CPD-0134) is directed to a compound of formula (IC1) […]. Group 4 (CPD-0136) is directed to a compound of formula (IC2) […]. Group 5 (CPD-0137) is directed to a compound of formula (IC3) (510 mM). Group 6 (CPD-0138) is directed to a compound of formula (IC4) […]. Group 7 (CPD-0139) is directed to a compound of formula (IC5) […]. Group 8 (CPD-0143) is directed to a compound of formula (IC6) […]. Group 9 (CPD-0144) is directed to a compound of formula (IC7) […]. Group 10 (CPD-0149) is directed to a compound of formula (IC8) […]. Group 11 (CPD-0158) is directed to a compound of formula (IC9) […]. Group 12 (CPD-0169) is directed to a compound of formula (IC10) […]. […]

[2] = clinical studies, Birinapant used in combination with HBV drugs such as Tenofovir or Entecavir; cited from earlier work
[3] = Experimental example 6, HepG2 2.2.15 cells, 100 mM (each), FIG. 15

**Q.** For `CC[C@H](NC(=O)[C@H](C)NC)C(=O)N1C[C@@H](O)C[C@H]1Cc1c(-c2[nH]c3cc(F)ccc3c2C[C@@H]2C[C@H](O)CN2C(=O)[C@H](CC)NC(=O)[C@H](C)NC)[nH]c2cc(F)ccc12` [Birinapant], which HBsAg level ([1]; Experimental example 2, HepG2 2.2.15 cells, 500 (unit uncertain), FIG. 11) is on record?
**A.** Its HBsAg level is “capable of reducing the HBsAg level as compared with the control”.

**Q.** What about the side effects [2] of the same compound?
**A.** Its side effects is “cranial nerve palsies (or Bell's palsies)”.

**Q.** For `C=C1[C@H](CO)[C@@H](O)C[C@@H]1n1cnc2c(=O)[nH]c(N)nc21` [Entecavir], which HBsAg level ([1]; Experimental example 1, HepG2 2.2.15 cells, 100 (unit uncertain), FIG. 10) is on record?
**A.** The HBsAg level was “capable of reducing the HBsAg level as compared with the control”.

**Q.** And the HBeAg level [1, 3]?
**A.** The HBeAg level was “effective in reducing the HBsAg and HBeAg levels as compared with the control”.

**Q.** What about the HBsAg level [1, 3] of the same compound?
**A.** Its HBsAg level is “effective in reducing the HBsAg and HBeAg levels as compared with the control”.

**Q.** Which HBsAg level ([1]; Experimental example 4, HepG2 2.2.15 cells, 500 (unit uncertain), FIG. 13) does the source give for `CN[C@@H](C)C(=O)N[C@H](C(=O)N1CCC[C@H]1c1nc(C(=O)c2ccc(F)cc2)cs1)C1CCCCC1` [LCL161] here?
**A.** The HBsAg level was “capable of reducing the HBsAg level as compared with the control”.

**Q.** For `C[C@@H](O)Cn1cnc2c(N)ncnc21` [Teno-Int, (R)-1-(6-amino-9H-purin-9-yl)propan-2-ol], which HBsAg level ([1]; Experimental example 3, HepG2 2.2.15 cells, 100 mM (IC3: 510 mM), FIG. 12) is on record?
**A.** Its HBsAg level is “slightly reduced as compared to the control”.
